Experimental data as given in patent US8952157B2, “Apoptosis-inducing agents for the treatment of cancer and immune and autoimmune diseases” (AbbVie Inc., priority 2008, dated 2015).

Biological target: GST-Bcl-2 (Homo sapiens (Human), UniProt P10415)
Assay: Time Resolved-Fluorescence Resonance Energy Transfer (TR-FRET) Bcl-2 binding assay
Conditions: not given
Procedure, shortened: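 Ki values derived from TR-FRET displacement of F-Bak peptide from GST-Bcl-2, detected with Tb-labelled anti-GST antibody (ex 340, em 520/495 nm). Compound dilution series started at 50 μM (2× starting concentration); room-temperature incubation 3 hours.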

Chain of GST-Bcl-2 (P10415 whole entry): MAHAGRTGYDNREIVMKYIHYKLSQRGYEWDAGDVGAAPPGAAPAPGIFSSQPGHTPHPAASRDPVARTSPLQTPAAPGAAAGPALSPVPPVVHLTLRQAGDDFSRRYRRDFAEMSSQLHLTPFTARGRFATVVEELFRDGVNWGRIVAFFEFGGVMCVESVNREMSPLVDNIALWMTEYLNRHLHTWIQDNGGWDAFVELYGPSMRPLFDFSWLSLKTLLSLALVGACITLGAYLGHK

Row | Compound | Ki [nM]
1 | CN1CCC(Nc2ccc(S(=O)(=O)NC(=O)c3ccc(N4CCN(CC5=C(c6ccc(Cl)cc6)CC(C)(C)CC5)CC4)cc3Oc3cc4cc[nH]c4cc3C(F)(F)F)cc2[N+](=O)[O-])CC1 [Example 217, 4-(4-{[2-(4-chlorophenyl)-4,4-dimethylcyclohex-1-en-1-yl]methyl)piperazin-1-yl)-N-((4-[(1-methylpiperidin-4-yl)amino]-3-nitrophenyl}sulfonyl)-2-{[6-(trifluoromethyl)-1H-indol-5-yl]oxy}benzamide] | 0.174

Same assay, conditions: GST-Bcl-2 1 nM, F-Bak peptide probe 100 nM, Tb-anti-GST antibody 1 nM; Ki by Wang's equation

Row | Compound | Ki [nM]
2 | CC(c1ccccc1-c1ccc(Cl)cc1)N1CCN(c2ccc(C(=O)NS(=O)(=O)c3ccc(NC4CCN(C)CC4)c([N+](=O)[O-])c3)c(Oc3ccccc3Cl)c2)CC1 (centres unmarked) [Example 206, 4-{4-[1-(4′-chloro-1,1′-biphenyl-2-yl)ethyl]piperazin-1-yl}-2-(2-chlorophenoxy)-N-({4-[(1-methylpiperidin-4-yl)amino]-3-nitrophenyl}sulfonyl)benzamide] | 0.037
3 | Nc1ccc(Oc2cc(N3CCN(Cc4ccccc4-c4ccc(Cl)cc4)CC3)ccc2C(=O)NS(=O)(=O)c2ccc(NCC3CCOCC3)c([N+](=O)[O-])c2)cc1 [Example 18, 2-(4-aminophenoxy)-4-(4-((4′-chloro-1,1′-biphenyl-2-yl)methyl)piperazin-1-yl)-N-((3-nitro-4-((tetrahydro-2H-pyran-4-ylmethyl)amino)phenyl)sulfonyl)benzamide] | 2.49
4 | CC1(C)CCC(CN2CCN(c3ccc(C(=O)NS(=O)(=O)c4ccc(NCC5CCOCC5)c([N+](=O)[O-])c4)c(Oc4cncc(Br)c4)c3)CC2)=C(c2ccc(Cl)cc2)C1 [Example 274, 2-[(5-bromopyridin-3-yl)oxy]-4-(4-{[2-(4-chlorophenyl)-4,4-dimethylcyclohex-1-en-1-yl]methyl}piperazin-1-yl)-N-({3-nitro-4-[(tetrahydro-2H-pyran-4-ylmethyl)amino]phenyl}sulfonyl)benzamide] | 0.936
5 | CN1CCN(Nc2ccc(S(=O)(=O)NC(=O)c3ccc(N4CCN(CC5=C(c6ccc(Cl)cc6)CC(C)(C)OC5)CC4)cc3Oc3cccc(F)c3F)cc2[N+](=O)[O-])CC1 [Example 186, 4-(4-{[4-(4-chlorophenyl)-6,6-dimethyl-5,6-dihydro-2H-pyran-3-yl]methyl}piperazin-1-yl)-2-(2,3-difluorophenoxy)-N-({4-[(4-methylpiperazin-1-yl)amino]-3-nitrophenyl}sulfonyl)benzamide] | 0.035
6 | COc1cc2[nH]ccc2cc1Oc1cc(N2CCN(CC3=C(c4ccc(Cl)cc4)CC(C)(C)CC3)CC2)ccc1C(=O)NS(=O)(=O)c1ccc(NC2CCN(C3CCOCC3)CC2)c([N+](=O)[O-])c1 [Example 227, 4-(4-{[2-(4-chlorophenyl)-4,4-dimethylcyclohex-1-en-1-yl]methyl}piperazin-1-yl)-2-[(6-methoxy-1H-indol-5-yl)oxy]-N-({3-nitro-4-[(1-tetrahydro-2H-pyran-4-ylpiperidin-4-yl)amino]phenyl}sulfonyl)benzamide] | 0.174
7 | CC1(C)CCC(CN2CCN(c3ccc(C(=O)NS(=O)(=O)c4ccc(NCCCN5CCOCC5)c([N+](=O)[O-])c4)c(Oc4ccc(F)cc4Cl)c3)CC2)=C(c2ccc(Cl)cc2)C1 [Example 120, 2-(2-chloro-4-fluorophenoxy)-4-(4-{[2-(4-chlorophenyl)-4,4-dimethylcyclohex-1-en-1-yl]methyl}piperazin-1-yl)-N-({4-[(3-morpholin-4-ylpropyl)amino]-3-nitrophenyl}sulfonyl)benzamide] | 0.214
8 | CC1(C)CCC(CN2CCN(c3ccc(C(=O)NS(=O)(=O)c4ccc(NC5CCN(C6CCOCC6)CC5)c([N+](=O)[O-])c4)c(Oc4ccccc4F)c3)CC2)=C(c2ccc(Cl)cc2)C1 [Example 124, 4-(4-{[2-(4-chlorophenyl)-4,4-dimethylcyclohex-1-en-1-yl]methyl}piperazin-1-yl)-2-(2-fluorophenoxy)-N-({3-nitro-4-[(1-tetrahydro-2H-pyran-4-ylpiperidin-4-yl)amino]phenyl}sulfonyl)benzamide] | 0.033
9 | CCN1CCC(Nc2ccc(S(=O)(=O)NC(=O)c3ccc(N4CCN(CC5=C(c6ccc(Cl)cc6)CC(C)(C)CC5)CC4)cc3Oc3cccc(Cl)c3)cc2[N+](=O)[O-])CC1 [Example 174, 2-(3-chlorophenoxy)-4-(4-{[2-(4-chlorophenyl)-4,4-dimethylcyclohex-1-en-1-yl]methyl}piperazin-1-yl)-N-({4-[(1-ethylpiperidin-4-yl)amino]-3-nitrophenyl}sulfonyl)benzamide] | 0.037
10 | CC1(C)CC(c2ccc(Cl)cc2)=C(CN2CCN(c3ccc(C(=O)NS(=O)(=O)c4cnc(OCC5(F)CCOCC5)c(Cl)c4)c(Oc4cnc(N)c(Cl)c4)c3)CC2)CO1 [Example 390, 2-[(6-amino-5-chloropyridin-3-yl)oxy]-N-({5-chloro-6-[(4-fluorotetrahydro-2H-pyran-4-yl)methoxy]pyridin-3-yl}sulfonyl)-4-(4-{[4-(4-chlorophenyl)-6,6-dimethyl-5,6-dihydro-2H-pyran-3-yl]methyl}piperazin-1-yl)benzamide] | < 0.01
11 | CC1(C)CCC(CN2CCN(c3ccc(C(=O)NS(=O)(=O)c4ccc(NC5CCN(CC6CC6)CC5)c([N+](=O)[O-])c4)c(Oc4cc5cc[nH]c5cc4F)c3)CC2)=C(c2ccc(Cl)cc2)C1 [Example 236, 4-(4-{[2-(4-chlorophenyl)-4,4-dimethylcyclohex-1-en-1-yl]methyl}piperazin-1-yl)-N-[(4-{[1-(cyclopropylmethyl)piperidin-4-yl]amino}-3-nitrophenyl)sulfonyl]-2-[(6-fluoro-1H-indol-5-yl)oxy]benzamide] | 0.071
12 | CN1C(C)(C)CC(Nc2ccc(S(=O)(=O)NC(=O)c3ccc(N4CCN(CC5=C(c6ccc(Cl)cc6)CC(C)(C)CC5)CC4)cc3Oc3ccccc3Cl)cc2[N+](=O)[O-])CC1(C)C [Example 48, 2-(2-chlorophenoxy)-4-(4-((2-(4-chlorophenyl)-4,4-dimethylcyclohex-1-en-1-yl)methyl)piperazin-1-yl)-N-((3-nitro-4-((1,2,2,6,6-pentamethylpiperidin-4-yl)amino)phenyl)sulfonyl)benzamide] | 0.053
13 | CC(C)N1CCC(Nc2ccc(S(=O)(=O)NC(=O)c3ccc(N4CCN(CC5=C(c6ccc(Cl)cc6)CC(C)(C)CC5)CC4)cc3Oc3cccc(Cl)c3)cc2[N+](=O)[O-])CC1 [Example 175, 2-(3-chlorophenoxy)-4-(4-{[2-(4-chlorophenyl)-4,4-dimethylcyclohex-1-en-1-yl]methyl}piperazin-1-yl)-N-({4-[(1-isopropylpiperidin-4-yl)amino]-3-nitrophenyl}sulfonyl)benzamide] | 0.046
14 | CN(C)CCCNc1ccc(S(=O)(=O)NC(=O)c2ccc(N3CCN(CC4=C(c5ccc(Cl)cc5)CC(C)(C)CC4)CC3)cc2Oc2cccc3c2c(CN2CCN(C)CC2)cn3CN2CCN(C)CC2)cc1[N+](=O)[O-] [Example 212, 2-({1,3-bis[(4-methylpiperazin-1-yl)methyl]-1H-indol-4-yl}oxy)-4-(4-{[2-(4-chlorophenyl)-4,4-dimethylcyclohex-1-en-1-yl]methyl}piperazin-1-yl)-N-[(4-{[3-(dimethylamino)propyl]amino}-3-nitrophenyl)sulfonyl]benzamide] | 0.375
